Entries after “also recorded” stand apart in the source; their conditions may differ. Read-outs that look alike come from different tables or passages of the source.
Key:
A498 and RCC068 = test: Long-term culture of renal cell carcinoma cell lines in the presence of TKIs; assay type: cell-based, human; conditions: 13 μM sorafenib, 14 d time point, cells harvested after 10 days
Method: The human renal cell carcinoma cell lines A498 and RCC068 were cultured in RPMI medium (5% FCS (Biochrom, Berlin, Germany), 5% HS (PromoCell, Heidelberg, Germany)). […] For each time point 3 flasks of each cell line were prepared by containing either 0.1% DMSO alone as a control, 13 μM sorafenib (8.3 μg/ml sorafenib tosylate)+0.1% DMSO, or 250 nM sunitinib (133 ng/ml sunitinib malate).
A normal medium control sample containing neither DMSO nor TKIs was harvested at 1 h for each cell line.

C57BL/6 T cells = test: Mouse mixed lymphocyte reaction (CFSE-labeled C57BL/6 spleen cells vs irradiated BALB/c splenocytes); assay type: cell-based; conditions: for Cell morphology in flow cytometry (putatively toxic effects): 13 μM sorafenib
Method: CFSE-labeled spleen cells from C57BL/6 (H2-b) mice were co-cultured with irradiated splenocytes from BALB/c (H2-d) mice, resulting in the strong allogenic response and proliferation of the C57BL/6 T cells against H2-d MHC molecules. The proliferation of the T cells results in a diminished CFSE staining of the divided cells. Percentage of divided cells and their number of divisions can be analyzed by flow cytometry.
Spleen cells were prepared from 1 C57BL/6 mouse and 1 BALB/c mouse (Harlan Winkelmann GmbH, Borchen, Germany). BALB/c cells were irradiated with 33 Gy. Effectors (C57BL/6) were adjusted to 20 Mio cells/ml. A 2 mM 5(6)-Carboxyfluorescindiacetate-N-succinimidylester (CFSE, Fluka, Buchs, Switzerland) solution in PBS was freshly prepared from a 10 mM DMSO stock solution. The cell suspension was mixed 1:1 with the CFSE solution. After incubation at 37° C. for 4 min, reaction was stopped by addition of fetal calf serum (Biochrom, Berlin, Germany), and free CFSE was washed out. 2×10^5 stimulator cells (BALB/c) were plated into cavities of a 96-well round-bottom plate. 1×10^5 or 2×10^5 CFSE-labeled effector cells and tyrosine kinase inhibitors at two different concentrations were added. Appropriate positive and negative controls were included. All cultures were in 200 μl T-cell medium with 0.1% (v/v) DMSO for 5 or 7 days without further medium change. Thereafter, cells were stained with fluorescently labelled anti-CD4-PerCP and anti-CD8-FITC antibodies (both BD Biosciences, Heidelberg, Germany) and analyzed by flow cytometry.
The experiment described above was repeated with the exception that a 96-well flat-bottom plate was used for mixed lymphocyte reactions (MLRs), a syngenic control with irradiated C57BL/6 cells was included, more concentrations of inhibitors were assessed, and all groups were analyzed in triplicates.
During cultivation, half of the medium was replaced with fresh appropriate medium supplemented with final concentrations of tyrosine kinase inhibitors every day, and proliferation was analyzed at day 7 only. Additionally cells were stained for H2-Kb to clearly identify effector cells in a further dimension.

[1] = system: OVA-001 specific CD8+ T-cells; assay type: in vivo, C57BL/6 mice; conditions: continuous treatment; for OVA-001 specific CD8+ T-cells, mean: OVA-001 immunized; for Immune response towards OVA-001 compared with vehicle treated controls (in words): both sorafenib dosages, high-dose (80 mg/kg bw) sunitinib, 80 mg/kg
[2] = system: CD4+ CD25+ Tregs, T cells, B cells, splenocytes; test: Immune cell populations in spleen and PBMCs of TKI-treated mice; assay type: in vivo, C57BL/6 mice; conditions: 4 weeks treatment
[3] = mouse, in vivo
Method: Female C57BL/6 mice (20-25 g, Harlan Winkelmann GmbH, Borchen, Germany) were used for all experiments described in this section. Animals were kept in the animal facility of the Dept. of Immunology at the University of Tuebingen. Animals were cared for by trained animal keepers and health status of animals was supervised by the veterinaries of the University of Tübingen. Feeding with drug was also performed in part by the local animal keepers after special training. All animals were supplied with water and food ad libitum. The described experiments were performed according to procedure no. IM1/06 approved by the Regierungsprasidium Tuebingen.
A liquid, viscous vehicle composed of 30% (w/v) Cremophor EL (Sigma, Deisenhofen, Germany), 30% (w/v) PEG 400 (Sigma, Deisenhofen, Germany), 10% ethanol p.a., 10% glucose was used. Sunitinib and sorafenib were suspended in vehicle according to the planned dosages in a way that […] body weight had to be applied to all mice, according to approx. 50 μl of suspension. Feasible aliquots were prepared from suspensions and from vehicle and stored until use at −20° C. in the dark. Thawed substance was stored at 4° C. and used within the next three days. Animals were weighed before start of treatment and thereafter weekly. The deduced dosage was applied daily using a 1 ml syringe with gavage into the backward cavity of the mouth of the animal without anesthesia. Drug delivery into blood plasma was controlled as described in example 1.
1) Immunization under continuous treatment with tyrosine kinase inhibitors. Pretreatment phase was two weeks (see FIG. 5A). […]
3) The experimental design was identical to a) Beside negative and positive control groups, groups treated with 60 mg/kg body weight sorafenib, and 20 and 40 mg/kg body weight sunitinib were included (6 mice per group). For spleen cells, CD4, Tregs, CD8 cells, and B cells were assessed, for PBMCs CD4, CD8, B cells and Tregs were analyzed.

[4] = HPLC quantification of TKI plasma levels in mouse models; assay type: in vivo; conditions: oral dosing
Method: The proteins were precipitated with 40 μl 100% acetonitril (Acros, Geel, Belgium), centrifuged and filtered through a 0.2 μm PVDF filter. 10 μl was directly injected to the HPLC system.
The HPLC system consisted of a Binary HPLC pump (Shimadzu LC10aVP), a Shimadzu SIL-10aVP autosampler, a Shimadzu CTO-10asVP column oven and a Shimadzu SPD10aVP detector. Data acquisition and analysis was performed using the Shimadzu Class-VP 7.3 software. Chromatographic separation was carried out on a reverse phase C18 column (Reprosil Pur ODS-3μ, 60×2 mm). To protect the analytical column a guard column has been used (Reprosil Pur ODS-5μ, 10×2 mm). Eluent A consisted of water (LCMS grade, Acros, Geel, Belgium), modified by 0.1% formic acid (Merck, Darmstadt, Germany) and eluent B was 80% acetonitril (Acros, Geel, Belgium) with 0.1% formic acid (Merck, Darmstadt, Germany).
The following gradient was used: 5 min 25% eluent B, 15 min 62.5% eluent B, 6 min 80% eluent B and 5 min 80% eluent B. The temperature of the autosampler was kept at 4° C. The temperature of the column was maintained at 30° C. The detection wavelength was set at 400 nm, the injection volume was 10 μl. The column was equilibrated with the mobile phase at a flow rate 0.5 ml/min.
For Sorafenib analysis, 10 μl of 50% acetonitril (Acros, Geel, Belgium) was added to 50 serum or medium in 0.5 ml PCR tubes and mixed for 10 seconds. […]

A498 tumor cells = conditions: A498, 24 h; 13 μM sorafenib or 250 nM sunitinib; normal medium control = 100%

SMILES: CNC(=O)c1cc(Oc2ccc(NC(=O)Nc3ccc(Cl)c(C(F)(F)F)c3)cc2)ccn1 [Sorafenib, 4-(4-{3-[4-Chloro-3-(trifluoromethyl)phenyl]ureido}phenoxy)-N-methylpyrid-ine-2-carboxamide]
- Cell growth in culture (A498 and RCC068): prevented cell growth
- CD4+ T-cell proliferation in response to allogenic stimuli (summary) (C57BL/6 T cells): increased
- CD8+ T-cell proliferation in response to allogenic stimuli (summary) (C57BL/6 T cells): slightly decreased; also recorded: slightly reduced
- CD8 proliferation (C57BL/6 T cells; first experiment, 1.3 μM sorafenib): only slightly affected
- Cell morphology in flow cytometry (putatively toxic effects) (C57BL/6 T cells; first experiment): different morphology
- Cell morphology in flow cytometry (putatively toxic effects) (C57BL/6 T cells; first experiment, listed as sorafenib): clear change in morphology
- Level inducing toxic effects (dramatically changed morphology of cells in flow cytometry) (C57BL/6 T cells; second experiment): ≥ 6.5 μM
- Cell morphology (toxic effects of the drug) (C57BL/6 T cells; second experiment, 6.5 or 13 μM Sorafenib): severe changes in morphology
- CD8+ proliferation (C57BL/6 T cells; second experiment, day 7): slight decrease
- Proliferation of CD4+ cells (C57BL/6 T cells; second experiment, day 7, 1.6 μM sorafenib): significant increase
- Drug-related toxicity for cells in mixed lymphocyte reactions (summary) (C57BL/6 T cells; sorafenib: at concentration near the steady-state plasma level of treated patients): toxic
- OVA-001 specific CD8+ T-cells, mean ([1]; 15 mg/kg bw, n=4): 0.72%
- OVA-001 specific CD8+ T-cells, mean ([1]; 60 mg/kg bw, n=12): 1.81%
- Immune response towards OVA-001 compared with vehicle treated controls (in words) [1]: reduced specific T-cell responses
- Immune response towards OVA-001 compared with vehicle treated controls (in words) ([1]; listed as sorafenib): reduced immune response
- Number of CD4+ CD25+ Tregs among total CD4+ cells in PBMCs [2]: unchanged or even slightly elevated
- Toxic side effects [3]: without any observed toxic side effects
- Bioavailability / plasma levels at the used doses [4]: confirmed to reach plasma levels shown by others to be effective in tumor growth inhibition
- % Expression relative to control: ADFP (A498 tumor cells): 100%
- % Expression relative to control: APOL1 (A498 tumor cells): 71%
- % Expression relative to control: CCND1 (A498 tumor cells): 81%
- % Expression relative to control: GUCY1A3 (A498 tumor cells): 44%
- % Expression relative to control: HLA-A (A498 tumor cells): 100%
- % Expression relative to control: HLA-B (A498 tumor cells): 87%
- % Expression relative to control: HLA-C (A498 tumor cells): 87%
- % Expression relative to control: MET (A498 tumor cells): 62%
- % Expression relative to control: MMP7 (A498 tumor cells): 25%
- % Expression relative to control: MUC1 (A498 tumor cells): 107%
- % Expression relative to control: PSMB8 (A498 tumor cells): 87%
- % Expression relative to control: PSMB9 (A498 tumor cells): 123%
- % Expression relative to control: TAP1 (A498 tumor cells): 123%

From patent publication US9308244B2, “Combination therapy using active immunotherapy” (immatics Biotechnologies GmbH, priority 2007, dated 2016)
